Patent US20230003721A1, “MITOTHERAPEUTICS FOR THE TREATMENT OF BRAIN DISORDERS” (The University of Florida Research Foundation, Inc., priority 2019, published 2023)
Structures can show the parent of a compound that is named as a salt. Where two headings read alike, the source gives them in different places.

Columns and labels:
[1] = tested on: primary forebrain neurons; test: cells; conditions: 24 h; for Dendritic Mt CA / Neurite Area: rescreen, 12.5 μM, vs DMSO wells; for EC50: Mus musculus, Neuron
primary neurons = test: Mitochondrial morphology and neurite area after functional modulators; assay type: cell-based, mouse; parameters: key to Neurite Area: non-significant (n.s.); conditions: for Mitochondrial Morphology / Neurite Area: significant change; for axonal mitochondrial circularity / neuritic area: after 48 h of treatment
Description: Mitochondrial morphology and neurite area measurements. Mitochondrial morphology and neurite area were quantified using methods described by Varkuti et al, 2020. Briefly, Cre-dependent mitochondrial targeted GFP2 (mito-GFP) ROSA26 knock-in mice were crossed with Ai14 (007908, The Jackson Laboratory) expressing cytosolic-tdTomato, and the forebrain of P0 pups were isolated and primary neurons were cultured as described above. AAV9 virus containing the iCRE sequence driven by the neuron specific CaMKII promoter was added to the cell culture at plating and 75% of the media replaced 4 h after plating. […] Z-projected images of the green channel were preprocessed (background subtraction: rolling ball, radius=3; median filtering: radius=1) and somatic mitochondria were removed (see details in Varkuti et al, Science Advances 6 (2020) eaaw8702). Red channel images were also preprocessed (tubeness filter, soma removal). Preprocessed images were segmented by GE Developer software (object-based, kernel size: 3). […] The length and circularity measurements for mitochondria were aggregated using the median and the area for neurites using the sum. After removing empty fields and outlier values from the fields, aggregated field values were averaged to well values (4 fields/well, 12 wells/compound). Robust Z-scores were calculated using DMSO-treated wells for each well ((mediancompound−medianDMSO)/median absolute deviationDMSO), well values were averaged for each compound.
A high-content assay was developed in parallel to monitor aspects of mitochondrial dynamics in primary cultured neurons that conditionally express (Cre recombinase dependent) mitochondrial-tagged GFP and cytosolic tdTomato reporters (Varkuti et al., 2020). We monitored two aspects of neuritic mitochondrial dynamics: (1) the health of mitochondria as measured by the average circularity of axonal mitochondria, since defective mitochondria targeted for mitophagy become circular in shape, and (2) the balance between fission/fusion measured by the average length of dendritic mitochondria. […] FIG. 19A illustrates the results of surveying a collection of functional modulators selected from 5 different structural clusters (FIG. 17), quantified as robust z-scores relative to DMSO-treated control neurons.

[2] = read-out: Elongation (Dend Mt length) EC50
[3] = read-out: Health (Ax Mt Circularity) EC50
[4] = read-out: Mt Content (Dend Mt CA) EC50
[5] = read-out: Sprouting (Neurite Area) EC50

SMILES	Dendritic Mt CA [1]	Neurite Area [1]	Mitochondrial Morphology (primary neurons)	Neurite Area (primary neurons)	EC50 [1, 2]	EC50 [1, 3]	EC50 [1, 4]	EC50 [1, 5]	axonal mitochondrial circularity (primary neurons)	neuritic area (primary neurons)
O=c1c(-c2ccc(O)cc2)coc2cc(O)cc(O)c12 [GENISTEIN]	2.93 robust Z-scores	0.34 robust Z-scores	elongated	n.s.						
COC(=O)[C@@H]1[C@H]2C[C@H]3c4[nH]c5ccccc5c4CCN3C[C@@H]2CC[C@@H]1O [YOHIMBINE HYDROCHLORIDE]	3.44 robust Z-scores	2.50 robust Z-scores	elongated	increased	0.2 µM	1.3 µM	0.01 µM	1.7 µM	robust effects	increase
CCCCOc1ccc(C(=O)CCN2CCCCC2)cc1 [DYCLONINE HYDROCHLORIDE]	3.89 robust Z-scores	0.33 robust Z-scores	elongated	increased	1.5 µM	0.2 µM	0.2 µM	> 25 µM	robust effects	increase
